Results on 17 compounds are retold here after ChEMBL document CHEMBL1201862, “PubChem BioAssay data set” (2004).

The source made the active and inactive calls.

Test [1] has as its system Streptococcus sp. 'group A'. As to the kind of experiment: growth inhibition of control SK(-) GAS strain, dose response, counter-screen for streptokinase expression inhibitor project, luminescence, kanamycin, BacTiterGlo, confirmation (AID 1900). It counts as functional, organism-based. (In general: Counterscreens check selectivity or assay interference.)
Test [2] addresses T1, Streptokinase A (Streptococcus pyogenes serotype M1, UniProt P10520).
T1 sequence (P10520 whole entry): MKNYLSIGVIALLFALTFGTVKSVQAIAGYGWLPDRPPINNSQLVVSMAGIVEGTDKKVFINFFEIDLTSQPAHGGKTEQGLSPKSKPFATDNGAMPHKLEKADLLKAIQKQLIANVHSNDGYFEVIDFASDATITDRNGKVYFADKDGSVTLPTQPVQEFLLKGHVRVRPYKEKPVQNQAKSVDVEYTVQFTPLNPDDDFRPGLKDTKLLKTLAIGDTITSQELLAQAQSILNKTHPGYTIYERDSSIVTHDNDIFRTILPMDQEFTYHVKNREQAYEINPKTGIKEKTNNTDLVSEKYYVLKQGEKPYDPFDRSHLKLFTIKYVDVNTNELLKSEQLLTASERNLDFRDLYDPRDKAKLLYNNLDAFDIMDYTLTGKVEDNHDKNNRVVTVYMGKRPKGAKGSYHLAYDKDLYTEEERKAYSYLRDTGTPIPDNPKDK
As to the kind of experiment: S. pyogenes streptokinase expression inhibitors, potency, dose response, plasminogen activation absorbance, OD405 (AID 1914).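 Further: secreted streptokinase activity via plasminogen activation per viability signal from cell pellet.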 It counts as functional, Streptococcus pyogenes M1 GAS.

Test [3] has as its system Streptococcus. As to the kind of experiment: Group A Streptococcus viability loss, dose response, counter-screen for streptokinase expression inhibitor project, luminescence, BacTiterGlo (AID 1915).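 Further: potency for reduction of bacterial viability or growth.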 The class given is functional, organism-based.
Test [4] can be described thus: Luminescence Cell-Based Dose Retest to Confirm Inhibitors of Cancer Stem Cells. [Related pubchem assays (depositor defined):AID2717, AID2721]. To be noted: Homo sapiens. It counts as functional.
Test [5] in a line: inhibitors of PGC1a acetylation in cells, dose response, cell-based, cherry-picked samples (AID 720514).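 Further: potency may reflect raised or lowered acetylation signal.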 The class given is functional.
Test [6] deals with T2, Coagulation factor XII (Homo sapiens, UniProt P00748).
T2 sequence (P00748 whole entry): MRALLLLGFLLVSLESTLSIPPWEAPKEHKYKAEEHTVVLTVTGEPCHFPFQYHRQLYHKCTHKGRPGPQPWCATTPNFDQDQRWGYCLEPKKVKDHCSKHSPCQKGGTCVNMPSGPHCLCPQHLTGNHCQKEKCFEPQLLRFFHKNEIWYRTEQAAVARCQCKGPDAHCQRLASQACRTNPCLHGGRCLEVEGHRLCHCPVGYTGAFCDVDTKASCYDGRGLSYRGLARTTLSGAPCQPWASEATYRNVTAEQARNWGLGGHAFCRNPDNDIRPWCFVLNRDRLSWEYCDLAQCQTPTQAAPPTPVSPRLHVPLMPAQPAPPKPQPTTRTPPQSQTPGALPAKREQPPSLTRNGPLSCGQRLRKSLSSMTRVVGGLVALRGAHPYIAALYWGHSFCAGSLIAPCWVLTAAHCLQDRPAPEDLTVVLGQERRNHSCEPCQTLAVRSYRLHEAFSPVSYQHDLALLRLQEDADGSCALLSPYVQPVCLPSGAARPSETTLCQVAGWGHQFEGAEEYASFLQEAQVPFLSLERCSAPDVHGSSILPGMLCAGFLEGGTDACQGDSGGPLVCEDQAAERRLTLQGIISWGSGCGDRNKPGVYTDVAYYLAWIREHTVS
It counts as functional.

Test [7] in a line: inhibitors of Vif binding to APOBEC3G peptide, primary screen, biochemical, TR-FRET, GST-Vif 1-94, biotin-A3G peptide, dose response retest (AID 1117319).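 Further: TR-FRET signal of purified GST-Vif binding a biotinylated A3G peptide; inhibitors lower the FRET signal by blocking Vif and A3G binding.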 It counts as functional. For orientation: Time-resolved FRET reads energy transfer from a long-lived donor to a nearby acceptor.
Test [8] deals with Voltage-dependent T-type calcium channel subunit alpha-1H (Homo sapiens, UniProt O95180). It counts as functional.
The target of test [9] is T3, Protein skinhead-1 (Caenorhabditis elegans, UniProt P34707).
T3 sequence (P34707 whole entry): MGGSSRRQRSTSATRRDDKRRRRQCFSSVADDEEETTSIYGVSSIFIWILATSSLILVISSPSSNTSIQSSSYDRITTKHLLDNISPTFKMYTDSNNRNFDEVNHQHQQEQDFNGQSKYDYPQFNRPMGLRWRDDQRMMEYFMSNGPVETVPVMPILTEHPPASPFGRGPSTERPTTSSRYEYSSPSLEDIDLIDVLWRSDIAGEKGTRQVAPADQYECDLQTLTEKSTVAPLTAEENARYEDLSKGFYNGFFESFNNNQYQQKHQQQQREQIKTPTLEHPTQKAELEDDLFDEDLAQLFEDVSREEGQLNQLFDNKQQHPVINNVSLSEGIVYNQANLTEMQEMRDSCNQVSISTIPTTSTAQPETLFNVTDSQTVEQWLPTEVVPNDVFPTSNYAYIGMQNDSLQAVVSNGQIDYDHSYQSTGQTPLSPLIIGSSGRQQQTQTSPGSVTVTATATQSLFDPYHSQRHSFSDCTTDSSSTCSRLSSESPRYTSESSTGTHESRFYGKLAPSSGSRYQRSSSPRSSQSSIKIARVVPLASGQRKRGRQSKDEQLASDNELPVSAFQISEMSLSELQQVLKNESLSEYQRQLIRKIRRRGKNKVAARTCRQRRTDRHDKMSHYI
The class given is functional.

A short description of test [10]: HEK293T cytotoxicity, dose response, cytotoxicity control for miR-122 modulator project, cell-based, inhibitor set, cherry-pick, set 2 (AID 720697). It counts as functional.
The nature of test [11]: cells. It counts as functional, cell-based.
Test [12] is described as follows: cells. It counts as functional, cell-based. The source holds these as a separate data set.
Test [13] addresses Disintegrin and metalloproteinase domain-containing protein 17 (Homo sapiens, UniProt P78536). As to the kind of experiment: exosite inhibitors of ADAM17, dose response, biochemical (AID 743260).
Test [14] can be described thus: ADAM10 protease inhibitors, dose response, selectivity assay for ADAM17 exosite inhibitor project, biochemical, FRET peptide substrate, recombinant human ADAM10 (AID 743259).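 Further: ADAM10 enzyme cleaving a FRET peptide substrate.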
Test [15] has as its target T4, Methionyl-tRNA synthetase, putative (Trypanosoma brucei brucei, UniProt Q38C91).
T4 sequence (Q38C91 whole entry): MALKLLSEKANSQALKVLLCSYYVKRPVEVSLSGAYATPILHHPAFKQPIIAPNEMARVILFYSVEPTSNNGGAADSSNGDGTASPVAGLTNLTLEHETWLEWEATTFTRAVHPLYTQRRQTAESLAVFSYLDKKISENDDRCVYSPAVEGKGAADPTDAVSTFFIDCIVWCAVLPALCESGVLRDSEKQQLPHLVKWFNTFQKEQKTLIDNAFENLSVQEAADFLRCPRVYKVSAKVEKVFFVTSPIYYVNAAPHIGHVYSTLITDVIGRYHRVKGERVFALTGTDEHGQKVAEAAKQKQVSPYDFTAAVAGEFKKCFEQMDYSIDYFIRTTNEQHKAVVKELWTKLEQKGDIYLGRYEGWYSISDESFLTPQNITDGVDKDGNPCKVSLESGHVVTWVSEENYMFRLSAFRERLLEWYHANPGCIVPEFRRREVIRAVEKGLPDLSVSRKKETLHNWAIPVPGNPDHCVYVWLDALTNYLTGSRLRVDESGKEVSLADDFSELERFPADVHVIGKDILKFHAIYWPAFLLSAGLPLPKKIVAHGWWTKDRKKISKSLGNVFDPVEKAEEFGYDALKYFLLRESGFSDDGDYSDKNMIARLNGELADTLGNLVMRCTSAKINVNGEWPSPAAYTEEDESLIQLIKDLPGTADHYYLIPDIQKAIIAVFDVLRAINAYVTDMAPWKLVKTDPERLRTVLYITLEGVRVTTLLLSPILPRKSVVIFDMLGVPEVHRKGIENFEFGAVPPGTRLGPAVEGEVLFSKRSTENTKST
The class given is functional, Trypanosoma brucei brucei strain 927/4 GUTat10.1.

Test [16] is described as follows: Counterscreen for inhibitors of Trypanosoma brucei methionyl tRNA synthetase (MetRS): Luminescence-based cell-based high throughput dose response assay to identify compounds that are cytotoxic to Jurkat human T lymphocyte cells. It counts as functional.
In test [17] the target is T4, Methionyl-tRNA synthetase, putative. It counts as functional, Trypanosoma brucei brucei strain 927/4 GUTat10.1. The source holds these as a separate data set.
The nature of test [18]: cells. It counts as functional.
The target in test [19] is T5, Rac GTPase-activating protein 1 (Homo sapiens, UniProt Q9H0H5).
T5 sequence (Q9H0H5 whole entry): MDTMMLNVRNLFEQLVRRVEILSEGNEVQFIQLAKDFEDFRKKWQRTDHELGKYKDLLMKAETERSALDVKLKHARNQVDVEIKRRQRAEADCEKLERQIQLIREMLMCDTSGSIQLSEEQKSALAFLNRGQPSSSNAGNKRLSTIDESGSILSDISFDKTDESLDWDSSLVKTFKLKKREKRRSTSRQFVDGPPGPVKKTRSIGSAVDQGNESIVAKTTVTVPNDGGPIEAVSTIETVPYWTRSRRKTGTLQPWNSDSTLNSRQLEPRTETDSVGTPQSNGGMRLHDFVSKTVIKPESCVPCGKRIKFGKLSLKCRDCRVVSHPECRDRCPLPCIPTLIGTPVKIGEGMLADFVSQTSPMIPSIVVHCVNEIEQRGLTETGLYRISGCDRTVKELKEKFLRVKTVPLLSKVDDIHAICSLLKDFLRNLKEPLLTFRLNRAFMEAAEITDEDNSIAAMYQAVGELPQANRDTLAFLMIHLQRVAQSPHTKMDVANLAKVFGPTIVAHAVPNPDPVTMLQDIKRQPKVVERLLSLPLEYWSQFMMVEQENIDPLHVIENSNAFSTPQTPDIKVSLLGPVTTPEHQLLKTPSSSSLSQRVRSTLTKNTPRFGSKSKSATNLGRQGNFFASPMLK
The test is described as follows: MgcRacGAP GTPase-activating activity inhibitors, confirmation, biochemical, ADP Hunter fluorescence, primary and confirmatory (AID 624330). It counts as functional.

Disintegrin and metalloproteinase domain-containing protein 17, sequence (P78536 whole entry, the tested form may be a part): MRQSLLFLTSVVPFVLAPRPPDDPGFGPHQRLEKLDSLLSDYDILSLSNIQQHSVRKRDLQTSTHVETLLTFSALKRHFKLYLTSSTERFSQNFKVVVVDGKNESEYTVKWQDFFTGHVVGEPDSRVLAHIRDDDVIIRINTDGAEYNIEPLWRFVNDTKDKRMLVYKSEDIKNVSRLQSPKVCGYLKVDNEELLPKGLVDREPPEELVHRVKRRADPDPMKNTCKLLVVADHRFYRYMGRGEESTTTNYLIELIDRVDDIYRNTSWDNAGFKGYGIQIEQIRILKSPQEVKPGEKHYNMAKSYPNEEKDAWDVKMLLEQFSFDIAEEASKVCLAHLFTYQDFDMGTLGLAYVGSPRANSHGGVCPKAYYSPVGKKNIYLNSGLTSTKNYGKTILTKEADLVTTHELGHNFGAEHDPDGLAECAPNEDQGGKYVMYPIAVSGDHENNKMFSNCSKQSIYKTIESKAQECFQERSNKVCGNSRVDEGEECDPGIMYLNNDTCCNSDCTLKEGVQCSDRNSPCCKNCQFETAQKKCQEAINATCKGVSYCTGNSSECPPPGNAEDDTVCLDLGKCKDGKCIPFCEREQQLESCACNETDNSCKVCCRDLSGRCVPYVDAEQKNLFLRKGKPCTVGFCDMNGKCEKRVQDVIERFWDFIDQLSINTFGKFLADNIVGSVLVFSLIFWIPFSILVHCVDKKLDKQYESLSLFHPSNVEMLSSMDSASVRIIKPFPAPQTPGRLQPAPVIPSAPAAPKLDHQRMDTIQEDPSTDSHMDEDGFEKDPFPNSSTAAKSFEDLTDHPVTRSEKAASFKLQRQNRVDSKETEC
Voltage-dependent T-type calcium channel subunit alpha-1H, sequence (O95180 whole entry): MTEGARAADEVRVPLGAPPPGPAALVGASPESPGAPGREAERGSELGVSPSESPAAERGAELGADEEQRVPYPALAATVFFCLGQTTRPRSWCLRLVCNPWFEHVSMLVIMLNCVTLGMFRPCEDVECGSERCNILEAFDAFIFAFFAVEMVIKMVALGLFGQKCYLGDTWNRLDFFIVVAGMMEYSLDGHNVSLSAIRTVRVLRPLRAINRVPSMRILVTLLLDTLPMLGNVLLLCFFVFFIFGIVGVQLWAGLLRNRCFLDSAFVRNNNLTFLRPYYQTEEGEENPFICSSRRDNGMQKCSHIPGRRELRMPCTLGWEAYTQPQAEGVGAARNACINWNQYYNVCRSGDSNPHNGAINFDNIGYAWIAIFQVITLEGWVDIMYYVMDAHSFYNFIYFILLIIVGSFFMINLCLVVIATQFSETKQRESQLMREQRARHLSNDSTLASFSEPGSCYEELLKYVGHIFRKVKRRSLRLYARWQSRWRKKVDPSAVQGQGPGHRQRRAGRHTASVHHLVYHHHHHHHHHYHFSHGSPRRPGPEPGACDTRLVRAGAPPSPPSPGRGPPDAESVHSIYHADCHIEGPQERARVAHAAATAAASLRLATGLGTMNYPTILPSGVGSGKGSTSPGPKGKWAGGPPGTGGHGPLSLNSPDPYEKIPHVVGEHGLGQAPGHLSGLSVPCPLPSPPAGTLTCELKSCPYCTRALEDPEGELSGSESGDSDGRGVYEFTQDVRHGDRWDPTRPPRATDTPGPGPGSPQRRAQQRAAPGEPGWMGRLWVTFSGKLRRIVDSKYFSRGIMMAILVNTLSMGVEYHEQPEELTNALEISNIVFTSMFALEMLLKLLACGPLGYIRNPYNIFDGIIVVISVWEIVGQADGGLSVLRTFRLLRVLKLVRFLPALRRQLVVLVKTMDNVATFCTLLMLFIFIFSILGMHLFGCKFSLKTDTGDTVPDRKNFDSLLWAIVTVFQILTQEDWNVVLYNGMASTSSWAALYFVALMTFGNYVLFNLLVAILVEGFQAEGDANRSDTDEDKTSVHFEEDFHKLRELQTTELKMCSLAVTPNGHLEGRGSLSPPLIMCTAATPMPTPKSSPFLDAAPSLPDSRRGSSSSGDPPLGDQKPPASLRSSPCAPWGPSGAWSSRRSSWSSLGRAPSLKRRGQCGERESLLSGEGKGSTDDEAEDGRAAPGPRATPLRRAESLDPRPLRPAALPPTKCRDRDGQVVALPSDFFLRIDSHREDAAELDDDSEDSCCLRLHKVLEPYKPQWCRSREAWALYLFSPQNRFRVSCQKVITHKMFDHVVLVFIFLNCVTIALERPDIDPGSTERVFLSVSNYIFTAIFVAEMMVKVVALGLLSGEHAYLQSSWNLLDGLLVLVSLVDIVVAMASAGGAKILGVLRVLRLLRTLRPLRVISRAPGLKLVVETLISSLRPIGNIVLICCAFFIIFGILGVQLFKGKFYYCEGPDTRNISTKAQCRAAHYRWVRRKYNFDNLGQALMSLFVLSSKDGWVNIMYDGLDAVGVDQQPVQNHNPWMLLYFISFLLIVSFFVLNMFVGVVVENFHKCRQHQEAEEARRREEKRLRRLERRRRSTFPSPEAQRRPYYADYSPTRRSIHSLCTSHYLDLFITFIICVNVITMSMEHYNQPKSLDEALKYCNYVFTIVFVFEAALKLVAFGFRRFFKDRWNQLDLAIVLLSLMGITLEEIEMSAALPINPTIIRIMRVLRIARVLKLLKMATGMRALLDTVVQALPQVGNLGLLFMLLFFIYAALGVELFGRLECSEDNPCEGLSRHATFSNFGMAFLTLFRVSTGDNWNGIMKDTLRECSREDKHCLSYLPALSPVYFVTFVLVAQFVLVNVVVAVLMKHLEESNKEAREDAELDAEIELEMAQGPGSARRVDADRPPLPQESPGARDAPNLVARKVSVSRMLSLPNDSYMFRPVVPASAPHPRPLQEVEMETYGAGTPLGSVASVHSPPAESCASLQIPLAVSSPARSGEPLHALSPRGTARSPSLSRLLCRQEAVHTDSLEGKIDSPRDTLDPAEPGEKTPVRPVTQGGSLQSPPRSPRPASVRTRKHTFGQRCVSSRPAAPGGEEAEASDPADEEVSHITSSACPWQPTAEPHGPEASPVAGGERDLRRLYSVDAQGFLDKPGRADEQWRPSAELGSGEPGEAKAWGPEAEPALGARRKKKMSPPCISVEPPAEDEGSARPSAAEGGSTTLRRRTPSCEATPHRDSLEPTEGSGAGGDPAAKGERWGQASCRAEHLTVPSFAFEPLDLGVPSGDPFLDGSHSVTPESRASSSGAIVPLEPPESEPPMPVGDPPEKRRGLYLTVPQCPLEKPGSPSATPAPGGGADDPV

In the case of `O=C(Nc1ccccc1)Nc1cc(Cl)cc(Cl)c1`, the values for the EC50 in test [1], in [2] and in [3] were 10.6 µM (active), 16.8 µM (active) and 48.6 µM (active), respectively. Besides, the AC50 – broadly, the midpoint of the concentration-response curve, whichever way the signal moves – in [4] is 4.3 µM (active); in test [5] it was 17.2 µM (active).
Consider `Cc1cc(-n2ccnc2)n2c(nc3ccccc32)c1C#N`, for which the IC50 (as a rule, the point on the concentration scale where inhibition reaches its midpoint) in test [6] is > 50 µM (inactive); in test [7] it was > 100 µM (active).
As for `O=C(Nc1ccc(Cl)c(C(F)(F)F)c1)c1ccco1`, the EC50 – broadly, the concentration needed to bring the measured effect to its halfway point – in [8] was 10.6 µM (active). The IC50 in test [9] was 45 µM (active). The half-maximal activity concentration (AC50) in test [10] was 4.01 µM (active).
With `Cn1nnnc1SCC(=O)NCc1cccc(C(=O)O)c1`, the AC50 in test [5] is 10.5 µM (active).
`CCOC(=O)C1CCCN(C(=O)c2ccc(CS(=O)(=O)c3ccc(Br)cc3)o2)C1` (configuration not stated): the IC50 in [7] was > 100 µM (active).
Regarding `CC(=O)Nc1ccc(NC(=O)Nc2ccccc2)cc1`, in [11], the IC50 is > 29.9 µM (inactive). In addition, the EC50 in test [12] was > 29.9 µM (inactive).
In the case of `CCCCc1cc(=O)oc2cc(C)cc(OC(C)C(=O)O)c12` (configuration not stated), in test [10], the AC50 is 1.08 µM (active).
`CN(C)S(=O)(=O)c1cccc(NC(=O)COC(=O)c2cccc(S(=O)(=O)N3CCc4ccccc4C3)c2)c1`: the IC50 in [13] and in test [14] was > 69.5 µM (inactive) in each case.
In the case of `O=C1N(Cc2cccnc2)C[C@@H]2C[C@@H](c3ccc4nsnc4c3)N3CCC[C@@]123`, the IC50 in test [7] was > 100 µM (active).
Turning to `Cc1cccc(N2CCN(C(=O)c3ccc(C[S+]([O-])Cc4ccc(Cl)cc4)o3)CC2)c1C` (configuration not stated), the IC50 in test [13] is > 69.5 µM (inactive); in test [14], > 7.72 µM (active).
For the compound `Cc1c(NS(=O)(=O)c2cc(C(=O)NCc3cccc(Cl)c3)ccc2Cl)c(=O)n(-c2ccccc2)n1C`, the IC50 is 94.9 µM (inactive) in [15], 83.3 µM (inactive) in test [16] and 26.8 µM (inactive) in test [17].
Consider `Cn1ccnc1Sc1ccc(/C=N/NC(=O)c2ccccc2O)cc1[N+](=O)[O-]`, for which, in test [7], the IC50 is > 100 µM (active).
Regarding `O=C(C[C@@H]1C=C[C@H](NC(=O)Cc2ccccn2)[C@@H](CO)O1)NCCc1ccccc1`, the IC50 in test [11] was > 29.9 µM (inactive). Further, the EC50 in [12] was > 29.9 µM (inactive).
For the compound `CO[C@H]1CN(C)C(=O)c2cc(NC(=O)c3ccccc3F)ccc2OC[C@@H](C)N(C)C[C@@H]1C`, the AC50 in [10] was 10.6 µM (active).
For the compound `O=C(CSc1nnc(COc2ccccc2)n1-c1ccc(Cl)cc1)Nc1ccccc1-c1ccccc1`, the IC50 in test [13] and in test [14] was > 69.5 µM (inactive) throughout.
`O=C(C/C=N\OCc1ccc([N+](=O)[O-])cc1)Nc1ccc(Cl)cc1`: the IC50 is 25.5 µM (active) in test [18], 2.56 µM (active) in test [15], 83.3 µM (inactive) in test [16] and 1.73 µM (active) in [17].
Turning to `O=C(CC(=O)Nc1ccc(Cl)c(Cl)c1)N/N=C/c1ccc(O)cc1`, the IC50 in test [15] was 25.3 µM (inactive); in test [16] it was 83.3 µM (inactive); in [17], 43.9 µM (inactive); in test [19] it was 74 µM (active).
